In patent US12497642B2, “Incorporation of unnatural nucleotides and methods of use in vivo thereof” (THE SCRIPPS RESEARCH INSTITUTE, priority 2017, dated 2025):
Several values for one entry are separate records, joined by “and”; a condition that tells them apart may be missing. Equal values may be shown once.

Columns and labels:
[1] = tested on: semi-synthetic organism (SSO) (strain YZ3); experiment: Replication and UBP retention in vivo in the semi-synthetic organism (streptavidin biotin shift, PAGE), Example 1; format: cell-based, Escherichia coli; settings: for UBP retention: context 1, dNaMTP 125 μM, dTPT3TP analog 10 μM; for UBP retention in vivo, in words: dTPT3TP analog paired with dNaMTP, discussion; for UBP retention (%): Table 5, dTPT3TP 25 μM
Method: All bacteria were cultured in 100 μL of liquid 2×YT media (casein peptone 16 g/L, yeast extract 10 g/L, NaCl 5 g/L) supplemented with potassium phosphate (50 mM, pH 7) in 96-well microwell plates. When noted, antibiotics were used at the following concentrations: chloramphenicol, 5 μg/mL; ampicillin, 100 μg/mL. Cell growth, indicated as OD600, was measured using a Perkin Elmer EnVision 2103 Multilabel Reader with a 590/20 nm filter. Unless otherwise stated, molecular biology reagents were purchased from New England Biolabs (Ipswich, MA) and were used according to the manufacturer's protocols. As necessary, purification of nucleic acids was accomplished by micro-elution columns (Zymo Research Corp; Irvine, CA). All natural oligonucleotides were purchased from IDT (San Diego, CA), and oligonucleotides containing dNaM were synthesized by Biosearch Technologies (Petaluma, CA) with purification by reverse phase cartridge. Unnatural nucleotide triphosphates were prepared, and confirmed by MALDI-TOF and UV/Vis.
Plasmids containing the dNaM-dTPT3 UBP were prepared and used to transform the semi-synthetic organism (SSO). To create a template for in vivo replication assays, Golden Gate assembly was used to construct a derivative of the pUC19 plasmid in which a single dNaM-dTPT3 UBP was embedded within the TK1 sequence ([…]; […]), a context within which the UBP is well replicated in the SSO. Plasmids were then used to transform the SSO (strain YZ3). Following transformation, the SSO was allowed to recover at 37° C. for 1 h in media containing dNaMTP (125 μM) and dTPT3TP (25 μM). Cells were pelleted by centrifugation, resuspended in fresh media lacking unnatural triphosphates, split into 100-μL aliquots and then used to inoculate cultures containing different pairs of unnatural triphosphates at the specified concentrations. When the cell density reached an OD600 of ˜0.7, cells were pelleted and plasmids were recovered and PCR amplified with d5SICSTP and a biotinylated analog of dNaMTP, and UBP retention was determined by comparing the intensity of the streptavidin shifted and unshifted bands via PAGE.

[2] = PCR amplification in vitro (SAR named in the discussion); format: biochemical; settings: paired with any analog
[3] = molecular target: T1, Klenow fragment of E. coli DNA polymerase I (Escherichia coli, UniProt P00582); experiment: Steady-state kinetic assay of unnatural triphosphate insertion; format: biochemical; settings: insertion of dXTP opposite dY = dTPT3 in template
T1 construct: the Klenow fragment of E. coli DNA polymerase I

[4] = tested on: OneTaq DNA polymerase; experiment: PCR amplification fidelity of DNA containing a single UBP (UBP retention in vitro); format: biochemical; settings: with dTPT3TP, 20 cycles
Excerpt: The fidelity with which DNA containing a single UBP is PCR amplified was explored using OneTaq DNA polymerase. To quantify fidelity, templates containing the dNaM-dTPT3 UBP were amplified with dTPT3TP and dNaMTP, dPTMOTP or dMTMOTP. Two templates were used where the UBP was flanked by different sequence contexts; T1, where X (X=NaM, or after the first round of replication, NaM, PTNO, or MTMO) is flanked by a 5′ dA and a 3′ dT, and which with X=dNaM is well replicated in the SSO, and T2 where X is flanked by a 5′ dC and a 3′ dG, and which with X=dNaM is poorly replicated in the SSO. DNA was amplified for 20 cycles with extension times of either 1 min or 45 s, with the shorter times used to probe amplification efficiency. After amplification, the DNA was purified and UBP retention was characterized via a second PCR amplification using OneTaq and DeepVent DNA polymerases and a biotinylated analog of dNaMTP, whose product was analyzed by PAGE.

[5] = tested on: SSO (strain YZ3); experiment: UBP retention in vivo in the SSO (biotin shift assay), Example 2; format: cell-based, Escherichia coli
Excerpt: Thus, to evaluate the UBPs in the in vivo environment of the SSO, Golden Gate assembly was used to construct four derivatives of the pUC19 plasmid containing a single dNaM-dTPT3 UBP, but where it was flanked by one of four different sequence contexts, context 1-4. These sequence contexts show decreasing UBP retention with dNaM-dTPT3. Plasmids were used to transform the SSO (strain YZ3), which was allowed to recover briefly in media containing dTPT3TP and either dNaMTP, dPTMOTP, or dMTMOTP. After transfer to fresh media containing the same triphosphates and ampicillin (to select for plasmid retention), the SSO was allowed to grow to an OD600 of ˜0.7, at which time plasmids were recovered and analyzed for UBP retention the same biotin shift assay described above. FIG. 9 exemplifies the results in vivo.

[6] = template T1 (5′ dA, 3′ dT), extension time 45 s
[7] = template T1 (5′ dA, 3′ dT), extension time 1 min
[8] = template T2 (5′ dC, 3′ dG), extension time 45 s
[9] = template T2 (5′ dC, 3′ dG), extension time 1 min
[10] = context d(ANaMT) / AXT, dTPT3TP 25 μM, triphosphate 5 μM
[11] = context d(ANaMT) / AXT, dTPT3TP 25 μM, triphosphate 10 μM
[12] = context d(ANaMT), with dTPT3TP, triphosphate 25 μM
[13] = context d(ANaMT), with dTPT3TP, triphosphate 150 μM
[14] = context d(CNaMC), with dTPT3TP, triphosphate 25 μM
[15] = context d(CNaMC), with dTPT3TP, triphosphate 150 μM
[16] = context d(CNaMG), with dTPT3TP, triphosphate 25 μM
[17] = context d(CNaMG), with dTPT3TP, triphosphate 150 μM

T1 sequence (P00582 324-928): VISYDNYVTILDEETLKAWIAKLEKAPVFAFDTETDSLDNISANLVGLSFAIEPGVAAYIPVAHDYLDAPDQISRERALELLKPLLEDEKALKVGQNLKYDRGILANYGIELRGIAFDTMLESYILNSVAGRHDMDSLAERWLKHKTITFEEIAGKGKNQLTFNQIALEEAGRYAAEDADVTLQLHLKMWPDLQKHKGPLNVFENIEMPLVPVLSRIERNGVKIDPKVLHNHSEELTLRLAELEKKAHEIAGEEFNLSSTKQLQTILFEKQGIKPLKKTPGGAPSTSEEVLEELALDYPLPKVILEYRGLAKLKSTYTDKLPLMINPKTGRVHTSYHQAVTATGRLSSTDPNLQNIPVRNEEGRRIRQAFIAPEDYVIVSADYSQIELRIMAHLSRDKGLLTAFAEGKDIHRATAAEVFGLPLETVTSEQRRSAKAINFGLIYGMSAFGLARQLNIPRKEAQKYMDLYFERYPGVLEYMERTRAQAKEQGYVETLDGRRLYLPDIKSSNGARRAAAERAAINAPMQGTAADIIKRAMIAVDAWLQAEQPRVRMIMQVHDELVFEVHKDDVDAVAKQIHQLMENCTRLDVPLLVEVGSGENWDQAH

Compound | UBP retention [1] | UBP retention in vivo, in words [1] | PCR amplification [2] | Km [3] [µM] | kcat [3] | UBP retention after PCR amplification [4, 6] [%] | UBP retention after PCR amplification [4, 7] [%] | UBP retention after PCR amplification [4, 8] [%] | UBP retention after PCR amplification [4, 9] [%] | UBP retention [5, 10] | UBP retention [5, 11] | UBP retention [5, 12] [%] | UBP retention [5, 13] [%] | UBP retention [5, 14] [%] | UBP retention [5, 15] [%] | UBP retention [5, 16] [%] | UBP retention [5, 17] [%] | other results
Cc1ccc2c(=O)n(C3CC(O)C(COP(=O)(O)OP(=O)(O)OP(=O)(O)O)O3)ccc2c1 (centres unmarked) [d5MICSTP] | significant retention | reasonable retention in vivo | do not support PCR amplification |  |  |  |  |  |  |  |  |  |  |  |  |  |  | UBP retention in vivo, in words ([1]; listed as d5MICS): reasonably well, but only at low concentration
O=c1c2ccccc2ccn1C1CC(O)C(COP(=O)(O)OP(=O)(O)OP(=O)(O)O)O1 (centres unmarked) [dICSTP] | significant retention | reasonable retention in vivo | do not support PCR amplification |  |  |  |  |  |  |  |  |  |  |  |  |  |  | UBP retention in vivo, in words ([1]; listed as dICS): reasonably well, but only at low concentration
COc1cc2ccsc2cc1C1CC(O)C(COP(=O)(O)OP(=O)(O)OP(=O)(O)O)O1 (centres unmarked) [dMTMOTP] |  |  |  | 0.22 | 0.142 s⁻¹ and 0.142 ± 0.0283 s⁻¹ | 84 | 80 | 58 | 58 | 59% and 59±24% | 80% and 80±11% | 96 | 99 | 19 | 62 | 5 | 8 | 
COc1cc2ccccc2cc1[C@H]1C[C@H](O)[C@@H](COP(=O)(O)OP(=O)(O)OP(=O)(O)O)O1 [dNaMTP, reference compound] |  |  |  | 0.09 | 0.178 s⁻¹ | 95 | 100 | 85 | 86 | 17% and 17±21% | 29% and 29±11% | 82 | 98 | 7 | 44 | 5 | 6 | UBP retention (%) ([1]; sequence context 1 (AXT), dNaMTP or dCNMOTP 25 μM): 85%; UBP retention (%) ([1]; sequence context 1 (AXT), dNaMTP or dCNMOTP 25 μM, listed as dNaM): 85 ± 10%; UBP retention (%) ([1]; sequence context 1 (AXT), dNaMTP or dCNMOTP 125 μM): 99 ± 3%; UBP retention (%) ([1]; sequence context 2 (AXA), dNaMTP or dCNMOTP 25 μM): 36%; UBP retention (%) ([1]; sequence context 2 (AXA), dNaMTP or dCNMOTP 25 μM, listed as dNaM): 36 ± 29%; UBP retention (%) ([1]; sequence context 2 (AXA), dNaMTP or dCNMOTP 125 μM): 73%; UBP retention (%) ([1]; sequence context 2 (AXA), dNaMTP or dCNMOTP 125 μM, listed as dNaM): 73 ± 21%; UBP retention (%) ([1]; sequence context 3 (CXC), dNaMTP or dCNMOTP 25 μM): no retention; UBP retention (%) ([1]; sequence context 3 (CXC), dNaMTP or dCNMOTP 25 μM, listed as dNaM): 7 ± 2%; UBP retention (%) ([1]; sequence context 3 (CXC), dNaMTP or dCNMOTP 125 μM): 26%; UBP retention (%) ([1]; sequence context 3 (CXC), dNaMTP or dCNMOTP 125 μM, listed as dNaM): 26 ± 16%; UBP retention (%) ([1]; sequence context 4 (CXG), dNaMTP or dCNMOTP 25 μM): not retained significantly; UBP retention (%) ([1]; sequence context 4 (CXG), dNaMTP or dCNMOTP 25 μM, listed as dNaM): 9 ± 1%; UBP retention (%) ([1]; sequence context 4 (CXG), dNaMTP or dCNMOTP 125 μM): not retained significantly; UBP retention (%) ([1]; sequence context 4 (CXG), dNaMTP or dCNMOTP 125 μM, listed as dNaM): 13 ± 2%
COc1cc2sccc2cc1[C@H]1C[C@H](O)[C@@H](COP(=O)(O)OP(=O)(O)OP(=O)(O)O)O1 [dPTMOTP] |  |  |  | 0.08 | 0.323 s⁻¹ and 0.323 ± 0.02 s⁻¹ | 90 | 98 | 74 | 78 | 77% and 77±22% | 92% and 92±6% | 99 | 98 | 55 | 97 | 2 | 7 | toxicity to cells ([5]; SSO cells, concentration matrix 5-150 μM, context CXC): not toxic to cells; effective concentration can be dropped to ([5]; context CXC (difficult to replicate sequences)): 100 µM; UBP retention (Avg) ([5]; context CXC, dPTMOTP 5 μM, dTPT3TP 5 μM): 7%; UBP retention (Avg) ([5]; context CXC, dPTMOTP 5 μM, dTPT3TP 25 μM): 7%; UBP retention (Avg) ([5]; context CXC, dPTMOTP 5 μM, dTPT3TP 100 μM): 10%; UBP retention (Avg) ([5]; context CXC, dPTMOTP 5 μM, dTPT3TP 150 μM): 7%; UBP retention (Avg) ([5]; context CXC, dPTMOTP 25 μM, dTPT3TP 5 μM): 18%; UBP retention (Avg) ([5]; context CXC, dPTMOTP 25 μM, dTPT3TP 25 μM): 59%; UBP retention (Avg) ([5]; context CXC, dPTMOTP 25 μM, dTPT3TP 100 μM): 63%; UBP retention (Avg) ([5]; context CXC, dPTMOTP 25 μM, dTPT3TP 150 μM): 47%; UBP retention (Avg) ([5]; context CXC, dPTMOTP 100 μM, dTPT3TP 5 μM): 58%; UBP retention (Avg) ([5]; context CXC, dPTMOTP 100 μM, dTPT3TP 25 μM): 89%; UBP retention (Avg) ([5]; context CXC, dPTMOTP 100 μM, dTPT3TP 100 μM): 93%; UBP retention (Avg) ([5]; context CXC, dPTMOTP 100 μM, dTPT3TP 150 μM): 66%; UBP retention (Avg) ([5]; context CXC, dPTMOTP 150 μM, dTPT3TP 5 μM): 61%; UBP retention (Avg) ([5]; context CXC, dPTMOTP 150 μM, dTPT3TP 25 μM): 103%; UBP retention (Avg) ([5]; context CXC, dPTMOTP 150 μM, dTPT3TP 100 μM): 90%; UBP retention (Avg) ([5]; context CXC, dPTMOTP 150 μM, dTPT3TP 150 μM): 64%
